Test results published in patent US8952024B2, “Herbicidal pyrimidone derivatives” (E I du Pont de Nemours and Company, priority 2009, dated 2015).

What was measured:
Type in all cases: in vivo
rice (Oryza sativa) = test: Test B flooded paddy test; details: for Rice plant response rating: Flood, 31 g ai/ha, scale 0 to 100 (0 no effect, 100 complete control)
Method in brief: (§1)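 2-leaf seedlings; pots flooded 3 cm over soil at treatment; cpd dosed into floodwater, depth kept constant. Greenhouse 13–15 d. Visual rating vs untreated controls, 0 = no effect, 100 = complete control.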

[1] = tested on: ducksalad (Heteranthera limosa); test: Test B flooded paddy test; details: for Ducksalad plant response rating: Flood, 31 g ai/ha, scale 0 to 100 (0 no effect, 100 complete control)
Method in brief: as §1

[2] = tested on: barnyardgrass (Echinochloa crus-galli); test: Test B flooded paddy test; details: for Barnyardgrass plant response rating: Flood, 31 g ai/ha, scale 0 to 100 (0 no effect, 100 complete control)
Method in brief: as §1

[3] = tested on: umbrella sedge (Cyperus difformis); test: Test B flooded paddy test; details: for Sedge, Umbrella plant response rating: Flood, 31 g ai/ha, scale 0 to 100 (0 no effect, 100 complete control)
Method in brief: as §1

wild oat (Avena fatua) = test: Test B pre-/postemergence plant response; details: for Oat, Wild plant response rating (0 to 100 scale): 62 g ai/ha, postemergence, 0 is no effect, 100 is complete control
Method in brief: (§2)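 Test compounds, formulated in a non-phytotoxic solvent mixture with surfactant, are applied to the soil surface (loam and sand blend) right after seeding, or sprayed over plants at the 1- to 4-leaf stage grown in peat moss/vermiculite medium. After 13 to 15 days under glasshouse conditions, each species is scored visually from 0 (no effect) to 100 (complete control) against controls.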

[4] = tested on: pigweed (Amaranthus retroflexus); test: Test B pre-/postemergence plant response; details: for Pigweed plant response rating (0 to 100 scale): 62 g ai/ha, postemergence, 0 is no effect, 100 is complete control
Method in brief: as §2

[5] = tested on: windgrass (Apera spica-venti); test: Test B postemergence plant response; details: for Windgrass plant response rating (0 to 100 scale): 62 g ai/ha, postemergence, 0 is no effect, 100 is complete control
Method in brief: (§3)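 Plants grown in peat/vermiculite medium were sprayed postemergence at 2–18 cm height (1- to 4-leaf stage). After 13–15 days in the greenhouse, response was rated visually against untreated controls on a 0–100 scale (0 no effect, 100 complete control).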

[6] = tested on: winter barley (Hordeum vulgare); test: Test B postemergence plant response; details: for Barley plant response rating (0 to 100 scale): 62 g ai/ha, postemergence, 0 is no effect, 100 is complete control
Method in brief: as §3

[7] = tested on: chickweed (Stellaria media); test: Test B postemergence plant response; details: for Chickweed plant response rating (0 to 100 scale): 62 g ai/ha, postemergence, 0 is no effect, 100 is complete control
Method in brief: as §3

[8] = tested on: canarygrass (Phalaris minor); test: Test B postemergence plant response; details: for Canarygrass plant response rating (0 to 100 scale): 62 g ai/ha, postemergence, 0 is no effect, 100 is complete control
Method in brief: as §3

[9] = 250 g ai/ha, flooded paddy test, visual rating on 0 to 100 scale (0 no effect, 100 complete control) after 13 to 15 days
[10] = Flood (flooded paddy test), 62 g ai/ha, scale of 0 to 100 where 0 is no effect and 100 is complete control, 13 to 15 days
[11] = Flood (flooded paddy test), 125 g ai/ha, scale 0 to 100, 0 is no effect, 100 is complete control, 13 to 15 days
[12] = Postemergence, 31 g ai/ha, 0 to 100 scale (0 no effect, 100 complete control)
[13] = Postemergence, 125 g ai/ha, scale 0 to 100 (0 no effect, 100 complete control)
[14] = Postemergence, 250 g ai/ha, scale 0 to 100 (0 no effect, 100 complete control), 13 to 15 days

## CCCn1c(-c2cccc(F)c2)ncc(C(=O)C2=C(O)CCCC2=O)c1=O [Compound 127]
Rice (Oryza sativa); [9]
  Plant response rating, Flood, Rice: 35
Rice (Oryza sativa); [10]
  Plant response rating, Rice: 15
Rice (Oryza sativa); [11]
  Plant response rating, Rice: 25
Rice (Oryza sativa)
  Rice plant response rating: 0
[1]; [9]
  Plant response rating, Flood, Ducksalad: 80
[1]; [10]
  Plant response rating, Ducksalad: 30
[1]; [11]
  Plant response rating, Ducksalad: 60
[1]
  Ducksalad plant response rating: 0
[2]; [9]
  Plant response rating, Flood, Barnyardgrass: 75
[2]; [10]
  Plant response rating, Barnyardgrass: 40
[2]; [11]
  Plant response rating, Barnyardgrass: 65
[2]
  Barnyardgrass plant response rating: 0
[3]; [9]
  Plant response rating, Flood, Sedge, Umbrella: 80
[3]; [10]
  Plant response rating, Sedge, Umbrella: 20
[3]; [11]
  Plant response rating, Sedge, Umbrella: 60
[3]
  Sedge, Umbrella plant response rating: 0
Wild oat (Avena fatua); 13 to 15 days
  Oat, Wild plant response rating (0 to 100 scale): 10
Wild oat (Avena fatua); [12]
  Plant response rating, Oat, Wild: 5
Wild oat (Avena fatua); [13]
  Plant response rating, Oat, Wild: 25
Wild oat (Avena fatua); [14]
  Plant response rating, Oat, Wild: 60
[4]; 13 to 15 days
  Pigweed plant response rating (0 to 100 scale): 95
[4]; [12]
  Plant response rating, Pigweed: 80
[4]; [13]
  Plant response rating, Pigweed: 95
[4]; [14]
  Plant response rating, Pigweed: 100
[5]; 13 to 15 days
  Windgrass plant response rating (0 to 100 scale): 50
[5]; [12]
  Plant response rating, Windgrass: 25
[5]; [13]
  Plant response rating, Windgrass: 55
[5]; [14]
  Plant response rating, Windgrass: 70
[6]; 13 to 15 days
  Barley plant response rating (0 to 100 scale): 20
[6]; [12]
  Plant response rating, Barley: 0
[6]; [13]
  Plant response rating, Barley: 35
[6]; [14]
  Plant response rating, Barley: 60
[7]; 13 to 15 days
  Chickweed plant response rating (0 to 100 scale): 75
[7]; [12]
  Plant response rating, Chickweed: 65
[7]; [13]
  Plant response rating, Chickweed: 98
[7]; [14]
  Plant response rating, Chickweed: 98
[8]; 13 to 15 days
  Canarygrass plant response rating (0 to 100 scale): 10
[8]; [12]
  Plant response rating, Canarygrass: 5
[8]; [13]
  Plant response rating, Canarygrass: 35
[8]; [14]
  Plant response rating, Canarygrass: 60

## O=C1CCCC(O)=C1C(=O)c1cnc(-c2ccccc2)n(C2CCCCC2)c1=O [Compound 128, 3-cyclohexyl-5-[(2-hydroxy-6-oxo-1-cyclohexen-1-yl)carbonyl]-2-phenyl-4(3H)-pyrimidinone]
Rice (Oryza sativa)
  Rice plant response rating: 0
Rice (Oryza sativa); Oryza sativa, 250 g ai/ha, flooded paddy test, visual rating on 0 to 100 scale (0 no effect, 100 complete control) after 13 to 15 days, read-out: Plant response rating, Flood, Rice
  plant injury at 250 g/ha: 35%
Rice (Oryza sativa); Oryza sativa, Flood (flooded paddy test), 62 g ai/ha, scale of 0 to 100 where 0 is no effect and 100 is complete control, 13 to 15 days, read-out: Plant response rating, Rice
  plant injury at 62 g/ha: 0%
Rice (Oryza sativa); Oryza sativa, Flood (flooded paddy test), 125 g ai/ha, scale 0 to 100, 0 is no effect, 100 is complete control, 13 to 15 days, read-out: Plant response rating, Rice
  plant injury at 125 g/ha: 10%
[1]
  Ducksalad plant response rating: 90
[1]; Heteranthera limosa, 360 h, 250 g ai/ha, flooded paddy test, visual rating on 0 to 100 scale (0 no effect, 100 complete control) after 13 to 15 days, read-out: Plant response rating, Flood, Ducksalad
  pest or weed control at 250 g/ha: 100%
[1]; Heteranthera limosa, 360 h, Flood (flooded paddy test), 62 g ai/ha, scale of 0 to 100 where 0 is no effect and 100 is complete control, 13 to 15 days, read-out: Plant response rating, Ducksalad
  pest or weed control at 62 g/ha: 95%
[1]; Heteranthera limosa, 360 h, Flood (flooded paddy test), 125 g ai/ha, scale 0 to 100, 0 is no effect, 100 is complete control, 13 to 15 days, read-out: Plant response rating, Ducksalad
  pest or weed control at 125 g/ha: 95%
[2]; Echinochloa crus-galli, 360 h, 250 g ai/ha, flooded paddy test, visual rating on 0 to 100 scale (0 no effect, 100 complete control) after 13 to 15 days, read-out: Plant response rating, Flood, Barnyardgrass
  pest or weed control at 250 g/ha: 40%
[2]; Echinochloa crus-galli, 360 h, Flood (flooded paddy test), 62 g ai/ha, scale of 0 to 100 where 0 is no effect and 100 is complete control, 13 to 15 days, read-out: Plant response rating, Barnyardgrass
  pest or weed control at 62 g/ha: 10%
[2]; Echinochloa crus-galli, 360 h, Flood (flooded paddy test), 125 g ai/ha, scale 0 to 100, 0 is no effect, 100 is complete control, 13 to 15 days, read-out: Plant response rating, Barnyardgrass
  pest or weed control at 125 g/ha: 15%
[2]
  Barnyardgrass plant response rating: 0
[3]; Cyperus difformis, 360 h, 250 g ai/ha, flooded paddy test, visual rating on 0 to 100 scale (0 no effect, 100 complete control) after 13 to 15 days, read-out: Plant response rating, Flood, Sedge, Umbrella
  pest or weed control at 250 g/ha: 75%
[3]; Cyperus difformis, 360 h, Flood (flooded paddy test), 62 g ai/ha, scale of 0 to 100 where 0 is no effect and 100 is complete control, 13 to 15 days, read-out: Plant response rating, Sedge, Umbrella
  pest or weed control at 62 g/ha: 30%
[3]; Cyperus difformis, 360 h, Flood (flooded paddy test), 125 g ai/ha, scale 0 to 100, 0 is no effect, 100 is complete control, 13 to 15 days, read-out: Plant response rating, Sedge, Umbrella
  pest or weed control at 125 g/ha: 60%
[3]
  Sedge, Umbrella plant response rating: 0
Wild oat (Avena fatua); 13 to 15 days
  Oat, Wild plant response rating (0 to 100 scale): 50
Wild oat (Avena fatua); Avena fatua, post-emergence, Postemergence, 31 g ai/ha, 0 to 100 scale (0 no effect, 100 complete control), read-out: Plant response rating, Oat, Wild
  pest or weed control at 31 g/ha: 40%
Wild oat (Avena fatua); Avena fatua, post-emergence, Postemergence, 125 g ai/ha, scale 0 to 100 (0 no effect, 100 complete control), read-out: Plant response rating, Oat, Wild
  pest or weed control at 125 g/ha: 60%
Wild oat (Avena fatua); Avena fatua, post-emergence, Postemergence, 250 g ai/ha, scale 0 to 100 (0 no effect, 100 complete control), 13 to 15 days, read-out: Plant response rating, Oat, Wild
  pest or weed control at 250 g/ha: 80%
[4]; 13 to 15 days
  Pigweed plant response rating (0 to 100 scale): 98
[4]; Amaranthus retroflexus, post-emergence, Postemergence, 31 g ai/ha, 0 to 100 scale (0 no effect, 100 complete control), read-out: Plant response rating, Pigweed
  pest or weed control at 31 g/ha: 95%
[4]; Amaranthus retroflexus, post-emergence, Postemergence, 125 g ai/ha, scale 0 to 100 (0 no effect, 100 complete control), read-out: Plant response rating, Pigweed
  pest or weed control at 125 g/ha: 98%
[4]; Amaranthus retroflexus, post-emergence, Postemergence, 250 g ai/ha, scale 0 to 100 (0 no effect, 100 complete control), 13 to 15 days, read-out: Plant response rating, Pigweed
  pest or weed control at 250 g/ha: 100%
[5]; 13 to 15 days
  Windgrass plant response rating (0 to 100 scale): 65
[5]; Apera spica-venti, post-emergence, 360 h, Postemergence, 31 g ai/ha, 0 to 100 scale (0 no effect, 100 complete control), read-out: Plant response rating, Windgrass
  pest or weed control at 31 g/ha: 50%
[5]; Apera spica-venti, post-emergence, 360 h, Postemergence, 125 g ai/ha, scale 0 to 100 (0 no effect, 100 complete control), read-out: Plant response rating, Windgrass
  pest or weed control at 125 g/ha: 70%
[5]; Apera spica-venti, post-emergence, 360 h, Postemergence, 250 g ai/ha, scale 0 to 100 (0 no effect, 100 complete control), 13 to 15 days, read-out: Plant response rating, Windgrass
  pest or weed control at 250 g/ha: 85%
[6]; 13 to 15 days
  Barley plant response rating (0 to 100 scale): 0
[6]; Hordeum vulgare, post-emergence, Postemergence, 31 g ai/ha, 0 to 100 scale (0 no effect, 100 complete control), read-out: Plant response rating, Barley
  plant injury at 31 g/ha: 0%
[6]; Hordeum vulgare, post-emergence, Postemergence, 125 g ai/ha, scale 0 to 100 (0 no effect, 100 complete control), read-out: Plant response rating, Barley
  plant injury at 125 g/ha: 0%
[6]; Hordeum vulgare, post-emergence, Postemergence, 250 g ai/ha, scale 0 to 100 (0 no effect, 100 complete control), 13 to 15 days, read-out: Plant response rating, Barley
  plant injury at 250 g/ha: 5%
[7]; 13 to 15 days
  Chickweed plant response rating (0 to 100 scale): 90
[7]; Stellaria media, post-emergence, 360 h, Postemergence, 31 g ai/ha, 0 to 100 scale (0 no effect, 100 complete control), read-out: Plant response rating, Chickweed
  pest or weed control at 31 g/ha: 90%
[7]; Stellaria media, post-emergence, 360 h, Postemergence, 125 g ai/ha, scale 0 to 100 (0 no effect, 100 complete control), read-out: Plant response rating, Chickweed
  pest or weed control at 125 g/ha: 95%
[7]; Stellaria media, post-emergence, 360 h, Postemergence, 250 g ai/ha, scale 0 to 100 (0 no effect, 100 complete control), 13 to 15 days, read-out: Plant response rating, Chickweed
  pest or weed control at 250 g/ha: 100%
[8]; 13 to 15 days
  Canarygrass plant response rating (0 to 100 scale): 10
[8]; Phalaris minor, post-emergence, 360 h, Postemergence, 31 g ai/ha, 0 to 100 scale (0 no effect, 100 complete control), read-out: Plant response rating, Canarygrass
  pest or weed control at 31 g/ha: 10%
[8]; Phalaris minor, post-emergence, 360 h, Postemergence, 125 g ai/ha, scale 0 to 100 (0 no effect, 100 complete control), read-out: Plant response rating, Canarygrass
  pest or weed control at 125 g/ha: 30%
[8]; Phalaris minor, post-emergence, 360 h, Postemergence, 250 g ai/ha, scale 0 to 100 (0 no effect, 100 complete control), 13 to 15 days, read-out: Plant response rating, Canarygrass
  pest or weed control at 250 g/ha: 30%
